Five substances from US10359432B2, “Methods for detecting antibodies” (The Regents of the University of California, priority 2008, dated 2019) can be followed below.

Bridge positions count the residues as written; N and C are the ends. Ends that are not written are not given here. * marks the point of attachment. Biotin = O=C1N[C@H]2[C@H](CS[C@H]2CCCCC(=O)*)N1

One assay concerns primary CLL cells. The assay is described as follows: Peptide inhibition of CLL cell staining by labeled mAb, flow cytometry. It counts as cell-based, human. Conditions: for Staining of primary CLL cells by fluorescently labeled mAb: no peptide. As for the experimental part:
The shaded histogram represents staining with labeled human IgG.
After informed consent was obtained per the Declaration of Helsinki, blood samples were collected from patients at the University of California, San Diego (UCSD) Medical Center who satisfied diagnosis and immunophenotypic criteria for common B-cell CLL.
Subsequently, cells were washed two times with 100 μl FACS-wash (PBS, 5% FCS and 0.5% sodium azide) and fixed with 100 μl with 3.7% formaldehyde in PBS.
There was no effect on the binding activity of the other mAb (data not shown).
On the technique in general: In flow cytometry, cells or beads pass a laser one at a time.

Another assay addresses alemtuzumab. The assay is described as follows: Antibody-peptide binding kinetics, SkiPro interferometer, whole mAb. As to conditions: whole molecule alemtuzumab. The text has this:
(§1) FIGS. 7A to 7D include graphical illustrations showing the kinetics of antibody-peptide binding. Biotinylated peptides were captured onto streptavidin coated nanoporous surfaces. The binding of the mAb or their Fab fragments was monitored on a SkiPro™ interferometer. The binding curves were globally fit to a single binding site association/dissociation model to derive Kon, Koff, and Kd values.
(§2) Kinetics of antibody-peptide binding were studied using SkiPro™ Biomolecular Interaction technology platform on a SkiPro™ interferometer equipped with a 2-channel flow cell and an autosampler (Silicon Kinetics Inc. San Diego, Calif.). All reagents were purchased from Sigma-Aldrich (St. Louis, Mo.). All peptides were incubated with oxidizing agent Sodium Tetrathionate at 10 mM in PBS for 1 hour immediately before binding experiments. Biotinylated peptides were diluted to 5 μM in PBS/0.05% BSA and immobilized on Streptavidin-coated SkiSensor™ Biochips for 10 minutes at 4 μl/min flow rate. […] Concentration series of antibodies and antibody Fab fragments were prepared as twofold dilutions in PBS/0.05% BSA. Binding was carried out for 10 minutes followed by 20 minutes dissociation. For all sensorgrams reference channel data was subtracted from the sample channel. The resulting multi-concentration series of binding curves were globally fit to a single binding site association/dissociation model.
(§3) Biotinylated peptides were used for kinetic binding measurements using nano-pore optical interferometry (FIGS. 7A-7D).

The target in assay [1] is Fab fragments of alemtuzumab. The assay is described as follows: Antibody-peptide binding kinetics, SkiPro interferometer, Fab fragments. As for the experimental part: as §1
Antibodies were prepared as follows. Alemtuzumab (Genzyme, Cambridge, Mass.) and rituximab (Genentech, San Francisco, Calif.) were obtained from the UCSD Cancer Center pharmacy. The antibodies were fluorescently labeled using the Zenon® R-Phycoerythrin Human IgG labeling kit, Zenon® Alexa Fluor® 488 Human IgG labeling and Zenon® Alexa Fluor® 488 protein labeling kits (Invitrogen, Carlsbad, Calif.). For kinetic studies, Fab fragments of each mAb were prepared by papain digestion using a Fab preparation kit (Thermo Fisher Scientific, Rockford, Ill.) as per manufacturers instructions.
as §2, §3

Turning to rituximab [reference compound], the “Staining of primary CLL cells by fluorescently labeled mAb” value in the assay on primary CLL cells is given as “weak”.
The same measure, in the same setting: the same measure for alemtuzumab [reference compound]: “robust staining”.
Turning to “ACPYSNPSLCGGK (ACPYSNPSLCGGK(Biotin); disulfide 2-10 (inferred)) [pRTX-10B]”, the “CLL cell labeling by fluorescently labeled rituximab with peptide added” value in the assay with primary CLL cells (peptide at 25,000 molar excess) is “largely abrogated”.
As for “ACGSLSPSSCGGK (ACGSLSPSSCGGK(Biotin); disulfide 2-10 (inferred)) [pCp-1B]”, in the assay on primary CLL cells (peptide at 25,000 molar excess), the “CLL cell labeling by fluorescently labeled alemtuzumab with peptide added” value is “largely abrogated”.
As to ACGSLSPSSC [Cp-1], on alemtuzumab, binding was characterised by a dissociation constant (Kd) of 163 nM and the Koff is 0.00132 s⁻¹. The Kon with alemtuzumab (biotinylated peptide on streptavidin surface) came out at 8130 M⁻¹ s⁻¹. For the same substance, in assay [1], binding was characterised by a dissociation constant (Kd) of 2050 nM, the Koff stood at 0.00505 s⁻¹ and the Kon stood at 2460 M⁻¹ s⁻¹.

For orientation: Kd means the concentration at which binding is half-saturated. A low value points to a tighter complex.
